From US12357603B2, “Acyl sulfonamides for treating cancer” (Bayer Aktiengesellschaft, priority 2019, dated 2025)
Read-outs that look alike come from different tables or passages of the source.

Legend:
[1] = molecular target: Recombinant human His-tagged Kat6a protein (amino acids 194-810) (Homo sapiens (Human), UniProt Q92794); assay: Kat6a activity assay (TR-FRET, acetylation of biotinylated Histone-H4-derived peptide); type: biochemical; conditions: 60 mins at 22° C., read-out: KAT6A-DPF/HAT domain IC50 [mol/l] (arithmetic mean)
Source text: Kat6a inhibitory activities of the compounds described in the present invention were quantified using a Fluorescence Resonance Energy Transfer (TR-FRET) assay which measures acetylation of a synthetic, biotinylated Histone-H4-derived peptide by the enzyme.
Recombinant human His-tagged Kat6a protein (amino acids 194-810), was purified in-house from Baculovirus-infected insect cells (Sf9). Histone H4 peptide (amino acids 1-24, […]-VLRD-K(Btn)-amide), which was used as substrate, was synthesized by Biosyntan GmbH, Berlin, Germany. Acetyl Coenzyme A was purchased from Sigma-Aldrich (#A-2056).
Kat6a was incubated for 60 mins at 22° C. in the presence of different concentrations of test substances (0 μM, and within the range 0.01-20 μM) in assay buffer [25 mM Tris/HCl pH 8, 1 mM EGTA, 2.5 mM Glutathion, 0.02% Chicken Albumin, 0.05% Pluronic F127, 25 mM NaCl, 220 nM H4 peptide and 600 nM Acetyl Coenzym A].
The reaction was stopped by addition of Detection Solution (25 mM HEPES pH 7.5, 0.1% BSA, 22 nM SAXL665 (Cisbio #610SAXLE), 100 μM Anacardic Acid (Enzo #ALX-270-381), 1 nM Anti-Histone H4 (ACETYL K8) Antibody (ABCAM #AB15823) and 0.5 nM Anti-Rabbit IgG Eu (Perkin Elmer #AD0083).
The fluorescence emission at 620 nm and 665 nm after excitation at 330-350 nm was measured in a TR-FRET measuring instrument, for instance a Rubystar or a Pherastar (both from BMG Lab Technologies, Offenburg, Germany) or a Viewlux (Perkin-Elmer). The ratio of the emission at 665 nm and at […] was used as indicator of the amount of acetylated peptide.
The resulting data (ratio) were normalized, taking 0% inhibition as the mean value of control measurements where all reagents were included. In this case 50 nl DMSO were used instead of compounds. […] IC50 values were determined by regression analysis based on a 4 parameter equation (minimum, maximum, ICM, Hill; Y=Max+(Min−Max)/(1+(X/ICso) Hill) using the Screener Software (Genedata).
Table 5 depicts the IC50 values of selected examples in biochemical KAT6A and KAT6B3 assays.

[2] = system: ESR1 transcription (luciferase signal in MVLN cells); assay: Repression of ESR1 transcription, luciferase reporter in MVLN cells; type: cell-based; conditions: inhibition of luciferase signal in MVLN cells, arithmetic mean
Source text: Repression of ESR1 Transcription Upon Treatment of Cells with Compounds
KAT6A controls transcription of the ESR1 gene in breast cancer cells. Compound treatment that interferes with this mechanism was quantified using MVLN cells. These cells constitutively express the ER and are stably transfected with the luciferase (LUC) reporter gene and the corresponding hormone responsive element derived from the 5′-flanking region of the Xenopus Vitellogenin A2 gene (Pons et al., 1990, Demirpense et al., 1993, Joyeux et al., 1993). The repressive effect on ERα transcription activity of a test chemical is directly related to the luciferase measured in the lysate of treated MVLN cells.
Each sample was prepared as duplicate and rim wells were excluded. For luciferase signal determination 100 μl of a 1:1 mixture of Steadylite plus (Perkin Elmer; 6016759) and assay medium was added after 24 h for 15 minutes and measured in Victor X3 (Perkin Elmer). To exclude any effects caused by cell loss during the treatment, cell density was determined using Alamar Blue (Invitrogen; DAL1100). Prior to the luciferase measurement 10 μl Alamar Blue were added to each well and the plates were incubated for 2 h in the incubator. Then fluorescence was measured with Victor X3 (Perkin Elmer) at 530 nm/590 nm.

ZR-75-1 cells = assay: Proliferation assay ZR-75-1 (Alamar Blue, 144 h); type: cell-based; conditions: arithmetic mean, read-out: ZR75-1 proliferation assay, EC50 [M] (arithmetic mean)
Source text: Proliferation Assays for Compound Characterization
For compound characterization cell survival assays were routinely run in two cell lines. ZR-75-1 is a breast carcinoma cell line containing a focal KAT6A amplification and high KAT6A protein expression. Proliferation of this cell line is inhibited upon treatment with KAT6A inhibitors. As a negative control cell line MDA-MB-436 were used. These cells carry a […] deletion of the KAT6A gene, have a low KAT6A protein expression and are not growth inhibited upon treatment with KAT6A inhibitors.
For measurements cell lines were plated at the below indicated concentration per […] in 96-well plates in a humidified incubator at 37° C. and 5% CO2.
ZR-75-1 (ATCC, CRL-1500; breast carcinoma); 3000 cells per well; culture medium: RPMI 1640 (Biochrom #FG 1215) medium containing 2.5% FBS (Biochrom #S0615).
24 hours later, cells were treated with compounds (stock solution, 10 mM in DMSO) using the HP D300 Digital Dispenser in a concentration range of 2.0×10E-5 M to 2.0×10E-9 M in a single-dot curve with 9 dilutions and a DMSO concentration of 0.2%. Each sample was prepared as triplicate and rim wells were excluded. Plates were incubated at 37° C. and 5% CO2 for 144 h. Cell viability was measured by adding 10 μL of Alamar Blue Reagent (Invitrogen #DAL 1100) and plates were incubated for 2 h at 37° C. and 5% CO2. Fluorescence was measured at 590 nm wavelength with a Tecan Spark or Victor X3 MTP-Reader (PerkinElmer).

Chain of Recombinant human His-tagged Kat6a protein (amino acids 194-810) (Q92794 194-810): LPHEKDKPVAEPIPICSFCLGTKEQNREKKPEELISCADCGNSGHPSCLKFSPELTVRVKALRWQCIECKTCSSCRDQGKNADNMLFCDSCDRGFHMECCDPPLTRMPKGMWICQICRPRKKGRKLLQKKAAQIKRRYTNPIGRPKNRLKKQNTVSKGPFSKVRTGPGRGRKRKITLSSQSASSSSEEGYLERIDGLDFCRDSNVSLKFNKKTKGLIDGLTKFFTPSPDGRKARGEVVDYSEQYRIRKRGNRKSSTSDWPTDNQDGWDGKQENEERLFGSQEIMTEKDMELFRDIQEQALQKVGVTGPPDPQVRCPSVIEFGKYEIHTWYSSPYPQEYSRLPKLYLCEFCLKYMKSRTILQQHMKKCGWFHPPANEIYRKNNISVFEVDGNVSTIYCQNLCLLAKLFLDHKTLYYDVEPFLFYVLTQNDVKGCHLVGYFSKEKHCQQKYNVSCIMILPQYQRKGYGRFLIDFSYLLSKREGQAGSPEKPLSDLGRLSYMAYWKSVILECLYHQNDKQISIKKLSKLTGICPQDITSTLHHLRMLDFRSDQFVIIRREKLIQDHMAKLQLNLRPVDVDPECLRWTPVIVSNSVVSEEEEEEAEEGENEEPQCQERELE

IC50 [1]	IC50 ([2]; Homo sapiens, MVLN)	IC50 [2]	Structure (SMILES)	EC50 (ZR-75-1 cells; Homo sapiens, ZR-75-1, 144 h)	EC50 (ZR-75-1 cells)
3.08 µM	11.5 µM		Cc1cnc(Cl)c(S(=O)(=O)NC(=O)c2cc3ccc(N(C)C)cc3o2)c1 [Example 154]	7e-06 M	
0.932 µM	1.93 µM		CC(C)Nc1cccc(F)c1S(=O)(=O)NC(=O)c1cc2ccc(N(C)C)cc2o1 [Example 155]	7.62e-06 M	
3.53 µM	0.971 µM		CN(C)c1ccc2cc(C(=O)NS(=O)(=O)c3cccnc3Cl)oc2c1 [Example 156]	4.97e-06 M	
3.18 µM	6.45 µM		Cc1cccc(C2CCCC2)c1S(=O)(=O)NC(=O)c1cc2ccc(N(C)C)cc2o1 [Example 157]	9.45e-06 M	
0.684 µM	1.49 µM		CN(C)c1ccc2cc(C(=O)NS(=O)(=O)c3c(F)cccc3C3CCC3)oc2c1 [Example 158]	7.93e-06 M	
0.233 µM	0.519 µM		Cc1ccc(S(=O)(=O)NC(=O)c2cc3ccc(N(C)C)cc3o2)c(OC(F)F)c1 [Example 159]	6.97e-07 M	
0.324 µM	0.741 µM		CN(C)c1ccc2cc(C(=O)NS(=O)(=O)c3c(F)cccc3OCC3CC3)oc2c1 [Example 160]	5.7e-06 M	
6.77 µM	> 20 µM		CN(C)c1ccc2cc(C(=O)NS(=O)(=O)c3cc(CO)ccc3OC(F)(F)F)oc2c1 [Example 161]	> 2e-05 M	
0.335 µM	0.34 µM		CCOc1c(F)cccc1S(=O)(=O)NC(=O)c1cc2ccc(N(C)C)cc2o1 [Example 169, 6-(Dimethylamino)-N-(2-ethoxy-3-fluoro-phenyl)sulfonyl-benzofuran-2-carboxamide]		
0.0949 µM	0.102 µM		CCOc1cc(F)ccc1S(=O)(=O)NC(=O)c1cc2ccc(N(C)C)cc2o1 [Example 171, 6-(Dimethylamino)-N-(2-ethoxy-4-fluoro-phenyl)sulfonyl-benzofuran-2-carboxamide]		
0.0118 µM	0.123 µM		CCOc1ccc(Oc2ccccc2)cc1S(=O)(=O)NC(=O)c1cc2ccc(N(C)C)cc2o1 [Example 174, 6-(Dimethylamino)-N-(2-ethoxy-5-phenoxy-phenyl)sulfonyl-benzofuran-2-carboxamide]		
	> 20 µM		Cc1ccc2cccc(S(=O)(=O)NC(=O)c3cc4cc(C#N)c(N(C)C)cc4o3)c2n1 [Example 209, 5-Cyano-6-(dimethylamino)-N-(2-methylquinoline-8-sulfonyl)-1-benzofuran-2-carboxamide]	9.4e-06 M	
		0.18 µM	CN(C)c1ccc2cc(C(=O)NS(=O)(=O)c3ccccc3-c3ccccc3)oc2c1 [Example 226]		2.46e-07 M

Continued, compound first:

Structure (SMILES)	IC50 [1]	IC50 ([2]; Homo sapiens, MVLN)	IC50 [2]	EC50 (ZR-75-1 cells; Homo sapiens, ZR-75-1, 144 h)	EC50 (ZR-75-1 cells)
CC(c1ccc(Cl)cc1Cl)S(=O)(=O)NC(=O)c1cc2ccc(N(C)C)cc2o1 (racemic) [Example 55, N-[1-(2,4-Dichlorophenyl)ethanesulfonyl]-6-(dimethylamino)-1-benzofuran-2-carboxamide (rac)]	0.0864 µM				
CC(c1c(Cl)cccc1Cl)S(=O)(=O)NC(=O)c1cc2ccc(N(C)C)cc2o1 (racemic) [Example 56, N-[1-(2,6-Dichlorophenyl)ethanesulfonyl]-6-(dimethylamino)-1-benzofuran-2-carboxamide (rac)]	0.0676 µM				
CC(Oc1cccc(OC2CCC2)c1S(=O)(=O)NC(=O)c1cc2ccc(N(C)C)cc2o1)C(F)(F)F (racemic) [Example 84, N-[2-(Cyclobutyloxy)-6-{[(2S)-1,1,1-trifluoropropan-2-yl]oxy}benzene-1-sulfonyl]-6-(dimethylamino)-1-benzofuran-2-carboxamide (rac)]	0.0406 µM	0.226 µM			
CN(C)c1ccc2cc(C(=O)NS(=O)(=O)c3ccccc3Br)oc2c1 [Example 18, N-(2-Bromobenzene-1-sulfonyl)-6-(dimethylamino)-1-benzofuran-2-carboxamide]	0.129 µM				
CN(C)c1ccc2cc(C(=O)NS(=O)(=O)c3ccccc3-c3ccccc3)oc2c1Br [Example 50, N-([Biphenyl]-2-ylsulfonyl)-7-bromo-6-(dimethylamino)-1-benzofuran-2-carboxamide]	4.23 µM				
CN(C)c1ccc2cc(C(=O)NS(=O)(=O)c3ccccc3C(F)(F)F)oc2c1 [Example 54, 6-(Dimethylamino)-N-[2-(trifluoromethyl)benzene-1-sulfonyl]-1-benzofuran-2-carboxamide]	0.43 µM				
CCOc1ccc(Br)cc1S(=O)(=O)NC(=O)c1cc2ccc(N(C)C)cc2o1 [Example 57, N-(5-Bromo-2-ethoxybenzene-1-sulfonyl)-6-(dimethylamino)-1-benzofuran-2-carboxamide]	0.0382 µM				
CCOc1ccncc1S(=O)(=O)NC(=O)c1cc2ccc(N(C)C)cc2o1 [Example 58, 6-(Dimethylamino)-N-(4-ethoxypyridine-3-sulfonyl)-1-benzofuran-2-carboxamide]	0.534 µM				
CN(C)c1ccc2cc(C(=O)NS(=O)(=O)c3ccccc3O)oc2c1 [Example 59, 6-(Dimethylamino)-N-(2-hydroxybenzene-1-sulfonyl)-1-benzofuran-2-carboxamide]	0.0861 µM				
CCOC(=O)N1CCC(S(=O)(=O)NC(=O)c2cc3ccc(N(C)C)cc3o2)CC1 [Example 60, Ethyl-4-{[6-(dimethylamino)-1-benzofuran-2-carbonyl]sulfamoyl}piperidine-1-carboxylate]	3.2 µM				
CN(C)c1ccc2cc(C(=O)NS(=O)(=O)c3c(OCc4ccccc4)cccc3OC3CCC3)oc2c1 [Example 69, N-[2-(Benzyloxy)-6-(cycolbutyloxy)benzene-1-sulfonyl]-6-(dimethylamino)-1-benzofuran-2-carboxamide]	0.0045 µM	0.0521 µM		3.84e-07 M	
CN(C)c1ccc2cc(C(=O)NS(=O)(=O)c3ccc([N+](=O)[O-])c4cccnc34)oc2c1 [Example 92, 6-(Dimethylamino)-N-(5-nitroquinoline-8-sulfonyl)-1-benzofuran-2-carboxamide]	0.151 µM	0.394 µM		3.43e-07 M	
CCOc1ccc(C(C)C)cc1S(=O)(=O)NC(=O)c1cc2c(F)cc(N(C)C)cc2o1 [Example 107, 6-(Dimethylamino)-N-[2-ethoxy-5-(propan-2-yl)benzene-1-sulfonyl]-4-fluoro-1-benzofuran-2-carboxamide]	0.00229 µM	0.00863 µM		4.49e-08 M	
CN(C)c1ccc2cc(C(=O)NS(=O)(=O)c3ccc(F)c(F)c3F)oc2c1 [Example 153]	0.906 µM	2.72 µM		2.77e-06 M	
